Experimental data: publication PMC10456296, “Trichoderols B-G, Six New Lipids from the Marine Algicolous Fungus Trichoderma sp. Z43” (Marine Drugs, 2023)
Values after ≈ are worked out from the molar mass of the structure shown. Where two headings read alike, the source gives them in different places.

What was measured:
[1] = test system: Heterocapsa circularisquama; test: Antimicroalgal activity, inhibition of marine phytoplankton; conditions: for IC50: Heterocapsa circularisquama, 24 h, read-out: IC50 Heterocapsa circularisquama
Fusarium graminearum = test: microbe, parasite or virus in culture; type: cell-based; conditions: 48 h, read-out: MIC Fusarium graminearum
Prorocentrum donghaiense = test: Antimicroalgal activity, inhibition of marine phytoplankton; conditions: for IC50: Prorocentrum donghaiense, 24 h, read-out: IC50 Prorocentrum donghaiense
[2] = test system: three phytopathogenic fungi (Fusarium graminearum, Gaeumannomyces graminis, and Glomerella cingulata); test: organism not typed; type: cell-based; conditions: for MIC: read-out: MIC against the three phytopathogenic fungi tested, summary over three fungi; for antifungal activity (in words): summary over three fungi
Amphidinium carterae = test: Antimicroalgal activity, inhibition of marine phytoplankton; conditions: for IC50: Amphidinium carterae, 24 h, read-out: IC50 Amphidinium carterae
Glomerella cingulata = test: Antifungal activity, microdilution method in 96-well plate; type: cell-based; conditions: Colletotrichum gloeosporioides; microdilution in PDB, 28 °C, 48 h
Heterosigma akashiwo = test: Antimicroalgal activity, inhibition of marine phytoplankton; conditions: for IC50: Heterosigma akashiwo, 24 h, read-out: IC50 Heterosigma akashiwo
Gaeumannomyces graminis = test: Antifungal activity, microdilution method in 96-well plate; type: cell-based; conditions: 48 h, read-out: MIC Gaeumannomyces graminis
Artemia salina = test: Brine shrimp lethal activity; type: in vivo; conditions: 24 h
Method: The inhibition of the brine shrimp Artermia salina was assayed according to the procedures described in our previous report. In brief, brine shrimp eggs were left to hatch in sea water for 48 h at 25 °C under natural light. […] The lethality was observed after 24 h of cultivation.

Question: For `C/C=C/CC[C@@H](O)[C@@H](O)C/C=C/[C@@H](O)[C@H](C)O` [Compound 7, triharzianin B], which IC50 [1] is on record?
Answer: Its IC50 is > 100 µg/mL.

Question: And the MIC (Fusarium graminearum)?
Answer: Its MIC is > 256 µg/mL.

Question: And the IC50 (Prorocentrum donghaiense)?
Answer: Its IC50 is 30 µg/mL (≈ 123 µM).

Question: What about the MIC [2] of the same compound?
Answer: Its MIC is ≥ 64 µg/mL.

Question: What about the “antifungal activity (in words)” value [2] of the same compound?
Answer: The value was “weak antifungal activity”.

Question: What about the IC50 (Amphidinium carterae) of the same compound?
Answer: The IC50 was > 100 µg/mL.

Question: And the MIC (Glomerella cingulata)?
Answer: The MIC was 128 µg/mL (≈ 524 µM).

Question: And the IC50 (Heterosigma akashiwo)?
Answer: The IC50 was 49 µg/mL (≈ 201 µM).

Question: And the MIC (Gaeumannomyces graminis; microdilution in PDB, 28 °C)?
Answer: Its MIC is 256 µg/mL (≈ 1050 µM).

Question: How did the IC50 [1] turn out when `C/C=C/CCC(O)C(O)C/C=C/C(O)C(C)O` (stereo not drawn) [Compound 4, (4E,11E)-trideca-4,11-diene-2,3,7,8-tetraol] was run?
Answer: The IC50 was > 100 µg/mL.

Question: What about the MIC (Fusarium graminearum) of the same compound?
Answer: The MIC was > 256 µg/mL.

Question: And the IC50 (Prorocentrum donghaiense)?
Answer: Its IC50 is 42 µg/mL (≈ 172 µM).

Question: And the MIC [2]?
Answer: Its MIC is ≥ 64 µg/mL.

Question: And the “antifungal activity (in words)” value [2]?
Answer: The value was “weak antifungal activity”.

Question: And the IC50 (Amphidinium carterae)?
Answer: Its IC50 is > 100 µg/mL.

Question: What about the MIC (Glomerella cingulata) of the same compound?
Answer: The MIC was 128 µg/mL (≈ 524 µM).

Question: What about the IC50 (Heterosigma akashiwo) of the same compound?
Answer: The IC50 was 53 µg/mL (≈ 217 µM).

Question: What about the MIC (Gaeumannomyces graminis; microdilution in PDB, 28 °C) of the same compound?
Answer: The MIC was 256 µg/mL (≈ 1050 µM).

Question: Which results are given for `C/C=C/CCC(O)C(O)C/C=C/CO` (stereo not drawn) [Compound 6, (2E,9E)-undeca-2,9-dien-1,5,6-triol]?
Answer: IC50 [1]: > 100 µg/mL; MIC (Fusarium graminearum): > 256 µg/mL; IC50 (Prorocentrum donghaiense): > 100 µg/mL; IC50 (Amphidinium carterae): 44 µg/mL (≈ 220 µM); MIC (Glomerella cingulata): > 256 µg/mL; IC50 (Heterosigma akashiwo): 82 µg/mL (≈ 409 µM); MIC (Gaeumannomyces graminis; microdilution in PDB, 28 °C): > 256 µg/mL

Question: Which results are given for `C[C@@H]1[C@H](O)[C@@H](C)/C=C/C=C/C=C/C=C/C=C/C=C/C=C/[C@H](O[C@@H]2O[C@H](C)[C@@H](O)[C@H](N)[C@@H]2O)C[C@@H]2O[C@](O)(C[C@@H](O)C[C@@H](O)[C@H](O)CC[C@@H](O)C[C@@H](O)CC(=O)O[C@H]1C)C[C@H](O)[C@H]2C(=O)O` [amphotericin B, reference compound]?
Answer: MIC (Fusarium graminearum): 2 µg/mL (≈ 2.16 µM); MIC (Glomerella cingulata): 1 µg/mL (≈ 1.08 µM); MIC (Gaeumannomyces graminis; microdilution in PDB, 28 °C): 2 µg/mL (≈ 2.16 µM)

Question: How did the IC50 [1] turn out when `CC=CCCC1(O)OC(C(O)C=CC)CC1O` (stereo not drawn) [Compound 1, Trichoderol B] was run?
Answer: Its IC50 is 24 µg/mL (≈ 99 µM).

Question: And the MIC (Fusarium graminearum)?
Answer: Its MIC is 256 µg/mL (≈ 1060 µM).

Question: What about the IC50 (Prorocentrum donghaiense) of the same compound?
Answer: Its IC50 is 22 µg/mL (≈ 90.8 µM).

Question: What about the MIC [2] of the same compound?
Answer: Its MIC is 64 to 256 µg/mL (≈ 264 to 1060 µM).

Question: What about the “antifungal activity (in words)” value [2] of the same compound?
Answer: The value was “weak antifungal activity”.

Question: And the IC50 (Amphidinium carterae)?
Answer: The IC50 was 15 µg/mL (≈ 61.9 µM).

Question: And the MIC (Glomerella cingulata)?
Answer: Its MIC is 64 µg/mL (≈ 264 µM).

Question: What about the IC50 (Heterosigma akashiwo) of the same compound?
Answer: The IC50 was 28 µg/mL (≈ 116 µM).

Question: What about the MIC (Gaeumannomyces graminis) of the same compound?
Answer: Its MIC is 256 µg/mL (≈ 1060 µM).

Question: Which IC50 [1] does the source give for `C/C=C/CCC(O)C(O)/C=C/C=C/C(O)CO` (stereo not drawn) [Compound 2, (3E,5E,11E)-trideca-3,5,11-trien-1,2,7,8-tetraol] here?
Answer: The IC50 was > 100 µg/mL.

Question: And the MIC (Fusarium graminearum)?
Answer: Its MIC is > 256 µg/mL.

Question: And the IC50 (Prorocentrum donghaiense)?
Answer: Its IC50 is 37 µg/mL (≈ 153 µM).

Question: What about the IC50 (Amphidinium carterae) of the same compound?
Answer: The IC50 was 61 µg/mL (≈ 252 µM).

Question: And the MIC (Glomerella cingulata)?
Answer: Its MIC is > 256 µg/mL.

Question: And the IC50 (Heterosigma akashiwo)?
Answer: Its IC50 is 43 µg/mL (≈ 177 µM).

Question: And the MIC (Gaeumannomyces graminis; microdilution in PDB, 28 °C)?
Answer: The MIC was > 256 µg/mL.

Question: What does the source list for `C=CCC(O)/C=C/C(O)C(O)CC/C=C/C` (stereo not drawn) [Compound 3, (5E,11E)-trideca-1,5,11-trien-4,7,8-triol]?
Answer: IC50 [1]: 78 µg/mL (≈ 345 µM); MIC (Fusarium graminearum): > 256 µg/mL; IC50 (Prorocentrum donghaiense): > 100 µg/mL; IC50 (Amphidinium carterae): 66 µg/mL (≈ 292 µM); MIC (Glomerella cingulata): > 256 µg/mL; IC50 (Heterosigma akashiwo): > 100 µg/mL; MIC (Gaeumannomyces graminis; microdilution in PDB, 28 °C): > 256 µg/mL

Question: Which results are given for `[K+].[K+].[O]=[Cr](=[O])([O-])[O][Cr](=[O])(=[O])[O-]` [Compound K2Cr2O7, K2Cr2O7, reference compound]?
Answer: IC50 Heterocapsa circularisquama ([1]; live cells counted after 24 h): 1.0 µg/mL; IC50 Prorocentrum donghaiense (Prorocentrum donghaiense; live cells counted after 24 h): 1.4 µg/mL; IC50 Amphidinium carterae (Amphidinium carterae; live cells counted after 24 h): 1.2 µg/mL; Lethal Rate (at 100 μg/mL) Artemia salina (Artemia salina): 100%; IC50 Heterosigma akashiwo (Heterosigma akashiwo; live cells counted after 24 h): 0.8 µg/mL

Question: For `C/C=C/CCC(O)C(O)C/C=C/CC(C)O` (stereo not drawn) [Compound 5, (4E,11E)-trideca-4,11-dien-2,7,8-triol], which IC50 [1] is on record?
Answer: Its IC50 is 68 µg/mL (≈ 298 µM).

Question: What about the MIC (Fusarium graminearum) of the same compound?
Answer: The MIC was > 256 µg/mL.

Question: And the IC50 (Prorocentrum donghaiense)?
Answer: Its IC50 is > 100 µg/mL.

Question: And the IC50 (Amphidinium carterae)?
Answer: Its IC50 is 50 µg/mL (≈ 219 µM).

Question: What about the MIC (Glomerella cingulata) of the same compound?
Answer: Its MIC is > 256 µg/mL.

Question: And the IC50 (Heterosigma akashiwo)?
Answer: Its IC50 is > 100 µg/mL.

Question: And the MIC (Gaeumannomyces graminis; microdilution in PDB, 28 °C)?
Answer: The MIC was > 256 µg/mL.
